Like-named read-outs stand apart in the source and are kept apart here. No end group written: not given here.
Columns and labels:
[1] = tested on: thoracodorsal arteries (TDA); assay: ATP release from intact TDA (luciferin:luciferase); assay type: cell-based, mouse; details: for ATP release from intact TDAs in response to agonist: five minutes of agonist, ARL67156 300 μmol/L
Procedure: Mouse TDAs of equal length were isolated and washed thoroughly to eliminate red blood cells. Vessels were placed in a well of a 96-well plate containing Krebs-HEPES solution supplemented with 1% BSA at 37° C. for 30 minutes to allow for degradation of any ATP released as a result of mechanical stimulation during manipulation of the vessel. For measurements performed on HEK cells: 24 hours after transfection, cells cultured in 24-well plates were cautiously washed twice with warm Krebs-HEPES-BSA and 300 μl of Krebs-HEPES-BSA was added to each well after the last wash as previously described. The plate was then kept in the incubator at 37° C. with 5% CO2 for 30 minutes to allow for degradation of ATP eventually released during the washes.
The ectonucleotidase inhibitor ARL67156 (300 μmol/L) was applied to each well. When indicated, ^10Panx1 (300 μmol/L) or the peptides analog to intracellular regions of Panx1 (3 μmol/L) were added along with the ARL67156. After a 30 minute incubation at 37° C. with the inhibitor(s), phenylephrine (100 μmol/L) or equivalent volume of Krebs-HEPES-BSA was added and the plate was kept at 37° C. After five minutes of phenylephrine stimulation, the media surrounding the TDA or the cells was transferred to an Eppendorf tube and centrifuged for five minutes at 5,000×g to eliminate eventual cell debris. Fifty microliters of the supernatant was transferred to a white-wall 96 well plate and placed in a FluoStar Omega luminometer. The ATP concentration was measured by adding 50 μL of luciferin:luciferase reagent (ATP bioluminescence assay kit HSII; Roche), which was injected into each well and the luminescence was immediately recorded. Data are expressed as a percent increase in ATP concentration compared to unstimulated condition. Each stimulated condition was compared to unstimulated condition performed on the same day, and all experiments were performed on at least 15 wells of HEK cells or three TDAs. Data were analyzed using a Kruskall Wallis test (non-parametric one-way ANOVA) followed by Dunn's post-hoc test.
To determine if the TDA response involved release of ATP, we dissected TDAs from C57Bl/6 mice and measured the accumulation of extracellular ATP in response to various agonists in the medium (FIG. 1E, inset). The TDAs were placed in a well of a 96 well plate in Krebs-HEPES solution and treated with the ectonucleotidase inhibitor ARL67156 for 30 minutes. Next, arteries were treated with a contractile agonist for five minutes and the amount of ATP in the media surrounding the vessel was determined using the ATP bioluminescence assay kit HSII (Roche).

[2] = tested on: thoracodorsal arteries (TDA); details: for EC50: read-out: EC50 of agonist for TDA constriction
[3] = tested on: thoracodorsal arteries (TDA); assay: tissue or blood; details: Mus musculus
[4] = tested on: thoracodorsal arteries (TDA); assay: Pressure myography: agonist-induced constriction of pressurized TDAs from C57Bl/6 mice with pannexin inhibitors or Panx1 mimetic peptides; assay type: cell-based, mouse; details: for effect on phenylephrine-induced constriction of pressurized TDAs: TAT-linked peptides, C57Bl/6 TDAs
Procedure: The contractile responses of pressurized thoracodorsal arteries (TDA) were measured as previously described. Briefly, TDA were isolated and placed in cold Krebs-HEPES until cannulation in a pressure arteriograph (Danish MyoTechnology). After a 30 minute equilibration period, cumulative concentrations of contractile agonists were applied to the TDA pressurized at 80 mmHg, and the vessel was visualized with an Olympus IX-71 microscope attached to a Hamamatsu EM-CCD camera coupled to Slidebook imaging software. […] Lastly, maximal diameter was measured at the end of each experiment in calcium-free Krebs-HEPES supplemented with EGTA (1 mmol/L) and sodium nitroprusside (10 μmol/L). In cases where the vessels were not constricting to the contractile agonist, their viability was assessed by applying 40 mM KCl and only TDA reaching 30% of the maximal diameter were considered for analysis. The contractile responses, as well as the basal tone, are expressed as a percentage of the maximal diameter.
Using pressure arteriography on TDA dissected from C57Bl/6 mice (as described; and aortic ring contraction, as described), we measured the effect of pannexin inhibitors, probenecid and 10Panx1, on the contractile response upon stimulation with different vasoconstrictors: phenylephrine (FIG. 1A), noradrenaline (also called norepinephrine) (FIG. 1B), serotonin (also known as 5-HT) (FIG. 1C) and endothelin-1 (FIG. 1D). […] In contrast, ^10Panx1 and probenecid had no effect on contraction of TDA measured in response to cumulative concentrations of serotonin or endothelin-1 (FIGS. 1C-D; Table 1).
To determine the region of Panx1 necessary for channel activation in response to α1AR stimulation, we produced short peptides derived from the intracellular regions of the Panx1 channel. We generated two peptides mimicking unique mouse Panx1 (mPanx1) sequences in the first intracellular loop (IL1 and IL2) and two peptides mimicking unique mPanx1 sequences in the C-terminal region, one in second intracellular loop (CT1) and one in the C-terminal tail (CT2) (FIG. 4A scissors indicate caspase 3 cleavage site; Table 3). All peptides also contained a TAT sequence to facilitate entry into cells and we verified the intracellular localization of each peptide by immunofluorescence detection of the TAT sequence in TDAs pre-incubated with each peptide (FIG. 7A). We tested the effect of each peptide on phenylephrine-induced contractile responses in pressurized TDAs from C57Bl/6 mice (FIGS. 4B-E). […] Note that these differences in effects of phenylephrine were similar in magnitude to those observed in arteries from SMC-specific Panx1-knockout mice and littermate controls (FIG. 2C, Table 2).

[5] = TDAs from Cre^+/Panx1^FL mice, tamoxifen-injected (SMC Panx1 knockout)
[6] = TDAs from Cre^+/Panx1^WT mice, tamoxifen-injected
[7] = TDAs from Cre^−/Panx1^FL mice, tamoxifen-injected
[8] = TDAs from Cre^−/Panx1^WT mice, tamoxifen-injected
[9] = read-out: EC50 of agonist for TDA constriction, TDAs from Cre^+/Panx1^FL mice, tamoxifen-injected (SMC Panx1 knockout)
[10] = read-out: EC50 of agonist for TDA constriction, TDAs from Cre^+/Panx1^WT mice, tamoxifen-injected
[11] = read-out: EC50 of agonist for TDA constriction, TDAs from Cre^−/Panx1^FL mice, tamoxifen-injected
[12] = read-out: EC50 of agonist for TDA constriction, TDAs from Cre^−/Panx1^WT mice, tamoxifen-injected
[13] = in presence of ^10Panx1 (300 μmol/L) or probenecid (2 mmol/L)
[14] = pannexin inhibitors, ^10Panx1 300 μmol/L, probenecid 2 mmol/L
[15] = in presence of the named peptide

CC[C@H](C)[C@H](NC(=O)[C@H](CC(=O)O)NC(=O)[C@H](CC(C)C)NC(=O)[C@H](Cc1c[nH]cn1)NC(=O)[C@@H]1CSSC[C@H](N)C(=O)N[C@@H](CO)C(=O)N[C@H]2CSSC[C@H](NC(=O)[C@H](CCC(=O)O)NC(=O)[C@H](CCCCN)NC(=O)[C@H](CC(=O)O)NC(=O)[C@H](CCSC)NC(=O)[C@H](CC(C)C)NC(=O)[C@H](CO)NC(=O)[C@H](CO)NC2=O)C(=O)N[C@@H](C(C)C)C(=O)N[C@@H](Cc2ccc(O)cc2)C(=O)N[C@@H](Cc2ccccc2)C(=O)N1)C(=O)N[C@H](C(=O)N[C@@H](Cc1c[nH]c2ccccc12)C(=O)O)[C@@H](C)CC [Endothelin-1, endothelin-1]
ATP release from intact TDAs in response to agonist [1]: neither serotonin nor endothelin-1 promoted ATP release | EMAX of agonist for TDA constriction [2, 5]: 38.9 ± 6.90 percentage of maximal diameter | EMAX of agonist for TDA constriction [2, 6]: 42.5 ± 4.82 percentage of maximal diameter | EMAX of agonist for TDA constriction [2, 7]: 42.2 ± 6.50 percentage of maximal diameter | EMAX of agonist for TDA constriction [2, 8]: 41.8 ± 4.95 percentage of maximal diameter | EC50 [2, 5]: 30.1 ± 14.6 nM | EC50 [2, 6]: 5.64 ± 2.94 nM | EC50 [2, 7]: 3.77 ± 0.56 nM | EC50 [2, 8]: 18.4 ± 10.9 nM

NC[C@H](O)c1ccc(O)c(O)c1 [Noradrenaline, noradrenaline]
EC50 [3, 9]: 50500 ± 24800 nM | EC50 [3, 10]: 6780 ± 3200 nM | EC50 [3, 11]: 10300 ± 1300 nM | EC50 [3, 12]: 6280 ± 1450 nM | EMAX of agonist for TDA constriction [2, 5]: 56.4 ± 5.61 percentage of maximal diameter | EMAX of agonist for TDA constriction [2, 6]: 48.2 ± 1.82 percentage of maximal diameter | EMAX of agonist for TDA constriction [2, 7]: 45.6 ± 5.40 percentage of maximal diameter | EMAX of agonist for TDA constriction [2, 8]: 41.4 ± 5.10 percentage of maximal diameter

CCCN(CCC)S(=O)(=O)c1ccc(C(=O)O)cc1 [Probenecid]
EMAX of endothelin-1 for TDA constriction [4, 13]: 34.6 ± 4.50 percentage of maximal diameter | EMAX of noradrenaline for TDA constriction [4, 13]: 74.9 ± 3.04 percentage of maximal diameter | EMAX of phenylephrine for TDA constriction [4, 13]: 72.6 ± 3.51 percentage of maximal diameter | EMAX of serotonin for TDA constriction [4, 13]: 39.5 ± 3.29 percentage of maximal diameter | effect on contraction of TDA in response to cumulative concentrations of serotonin or endothelin-1 [4, 14]: had no effect | effect on phenylephrine- and noradrenaline-mediated contraction of TDA [4, 14]: significantly inhibited

NCCc1c[nH]c2ccc(O)cc12 [Serotonin]
EC50 [3, 9]: 14.2 ± 5.53 nM | EC50 [3, 10]: 40.7 ± 12.2 nM | EC50 [3, 11]: 65.2 ± 40.9 nM | EC50 [3, 12]: 23.8 ± 5.07 nM | ATP release from intact TDAs in response to agonist [1]: neither serotonin nor endothelin-1 promoted ATP release | EMAX of agonist for TDA constriction [2, 5]: 38.2 ± 5.60 percentage of maximal diameter | EMAX of agonist for TDA constriction [2, 6]: 40.1 ± 4.59 percentage of maximal diameter | EMAX of agonist for TDA constriction [2, 7]: 30.4 ± 1.78 percentage of maximal diameter | EMAX of agonist for TDA constriction [2, 8]: 36.1 ± 2.68 percentage of maximal diameter

YGRKKQRRR [TAT]
effect on phenylephrine-induced constriction of pressurized TDAs [4]: no significant effect | EMAX of phenylephrine for TDA constriction [4, 15]: 32.0 ± 6.21 percentage of maximal diameter | effect on phenylephrine-induced ATP release from intact TDAs ([1]; phenylephrine 100 μmol/L, ^10Panx1 300 μmol/L, peptides 3 μmol/L): no effect

mPanx1 178-VGQSLWEISE-187 (SEQ ID NO: 4) linked with a TAT sequence (YGRKKQRRR) (also: linked with TAT sequence (YGRKKQRRR), end not given here; UniProt Q9JIP4 178-187, looked up, fragment) [IL1]
effect on phenylephrine-induced constriction of pressurized TDAs [4]: did not affect | EMAX of phenylephrine for TDA constriction [4, 15]: 32.3 ± 3.81 percentage of maximal diameter

mPanx1 381-IPTSLQTKGE-390 (SEQ ID NO: 6) linked with a TAT sequence (YGRKKQRRR) (also: linked with TAT sequence (YGRKKQRRR), end not given here; UniProt Q9JIP4 381-390, looked up, fragment) [CT2]
effect on phenylephrine-induced constriction of pressurized TDAs [4]: did not affect | EMAX of phenylephrine for TDA constriction [4, 15]: 52.3 ± 4.86 percentage of maximal diameter
